Assay results taken from US12076307B2, “Compositions for prevention or treatment of acute radiation syndrome and other radiation exposure” (priority 2017, dated 2024).
Marks after values point to notes of the source that are not given here.

Experiments:
Balb/c mice, 6.11 Gy TBI = test: Dose optimization / pharmacodynamics study in LD70/30 ARS model (40 mice per group)
Beagle dog = test: Repeated dose toxicity, Beagle dog; format: in vivo; settings: Oral
From the text: (§1) Various toxicology studies have been performed. All studies were GLP-compliant unless otherwise noted.

[1] = Repeated dose toxicity, Beagle dog; format: in vivo; settings: Beagle, dog, in vivo, Oral
From the text: as §1

SD rat [2] = test: Immunotoxicity study (splenic blastogenesis response test); format: in vivo; settings: Oral; 4 weeks
From the text: as §1

SD rat [3] = test: Immunotoxicity study; format: in vivo; settings: Oral; 4 weeks; 0, 2000 mg/kg
From the text: as §1

CCCCC/C=C\C/C=C\CCCCCCCC(=O)OC(COC(C)=O)COC(=O)CCCCCCCCCCCCCCC (stereo not shown) [EC-18, 1-palmitoyl-2-linoleoyl-3-acetylglycerol]
Mean Duration of Neutropenia in Days (±SE) (Balb/c mice, 6.11 Gy TBI; EC-18 50 mg/kg, n=19): 21.0 ± 0.7^b (17-24) Days | Mean Duration of SN in Days (±SE) (Balb/c mice, 6.11 Gy TBI; EC-18 50 mg/kg, n=19): 11.4 ± 0.9^b (5-19) Days | Mean Duration of Thrombocytopenia in Days (±SE) (Balb/c mice, 6.11 Gy TBI; EC-18 50 mg/kg, n=19): 12.8 ± 0.8^b (7-17) Days | Mean of the First Day Of Anemia (HGB <12 g/dL) (±SE) (Balb/c mice, 6.11 Gy TBI; EC-18 100 mg/kg): 11.0 ± 0.5 (5-15) | Mean of the First Day of Neutropenia (ANC <500 cells/μL) (±SE) (Balb/c mice, 6.11 Gy TBI; EC-18 100 mg/kg): 3.0 ± 0.0 (3-3) | Mean of the First Day of Thrombocytopenia (PLT <100 × 10^3 cells/μL) (±SE) (Balb/c mice, 6.11 Gy TBI; EC-18 100 mg/kg): 10.0 ± 0.0 (10-10) | Mean of the First Day of SN (ANC <100 cells/μL) (±SE) (Balb/c mice, 6.11 Gy TBI; EC-18 100 mg/kg, 100 mg/kg): 5.1 ± 0.5 (3-10) days | Mean Duration of Anemia in Days (±SE) (Balb/c mice, 6.11 Gy TBI; EC-18 100 mg/kg, n=17): 15.5 ± 0.5^c (12-20) Days | Mean Duration of Neutropenia in Days (±SE) (Balb/c mice, 6.11 Gy TBI; EC-18 100 mg/kg, n=18): 23.9 ± 0.5^c (19-27) Days | Mean Duration of SN in Days (±SE) (Balb/c mice, 6.11 Gy TBI; EC-18 100 mg/kg, n=18): 13.4 ± 1.3^c (7-25) Days | Mean Duration of Thrombocytopenia in Days (±SE) (Balb/c mice, 6.11 Gy TBI; EC-18 100 mg/kg, n=18): 14.7 ± 1.0^c (5-20) Days | Mean of the First Day Of Anemia (HGB <12 g/dL) (±SE) (Balb/c mice, 6.11 Gy TBI; EC-18 250 mg/kg): 12.1 ± 0.5 (10-15) | Mean of the First Day of Neutropenia (ANC <500 cells/μL) (±SE) (Balb/c mice, 6.11 Gy TBI; EC-18 250 mg/kg): 3.2 ± 0.1 (3-5) | Mean of the First Day of Thrombocytopenia (PLT <100 × 10^3 cells/μL) (±SE) (Balb/c mice, 6.11 Gy TBI; EC-18 250 mg/kg): 10.1 ± 0.1 (10-12) | Mean of the First Day of SN (ANC <100 cells/μL) (±SE) (Balb/c mice, 6.11 Gy TBI; EC-18 250 mg/kg, 250 mg/kg): 8.5 ± 1.0 (3-17) days | Mean Duration of Anemia in Days (±SE) (Balb/c mice, 6.11 Gy TBI; EC-18 250 mg/kg, n=19): 9.7 ± 0.7^d (5-17) Days | Mean Duration of Neutropenia in Days (±SE) (Balb/c mice, 6.11 Gy TBI; EC-18 250 mg/kg, n=20): 21.2 ± 0.7^d (17-27) Days | Mean Duration of SN in Days (±SE) (Balb/c mice, 6.11 Gy TBI; EC-18 250 mg/kg, n=20): 7.2 ± 0.7^d (2-12) Days | Mean Duration of Thrombocytopenia in Days (±SE) (Balb/c mice, 6.11 Gy TBI; EC-18 250 mg/kg, n=20): 6.7 ± 0.5^d (3-12) Days | Mean of the First Day Of Anemia (HGB <12 g/dL) (±SE) (Balb/c mice, 6.11 Gy TBI; EC-18 500 mg/kg): 12.2 ± 0.5 (7-15) | Mean of the First Day of Neutropenia (ANC <500 cells/μL) (±SE) (Balb/c mice, 6.11 Gy TBI; EC-18 500 mg/kg): 3.4 ± 0.2 (3-5) | Mean of the First Day of Thrombocytopenia (PLT <100 × 10^3 cells/μL) (±SE) (Balb/c mice, 6.11 Gy TBI; EC-18 500 mg/kg): 10.1 ± 0.1 (10-12) | Mean of the First Day of SN (ANC <100 cells/μL) (±SE) (Balb/c mice, 6.11 Gy TBI; EC-18 500 mg/kg, 500 mg/kg): 7.0 ± 0.9 (3-20) days | Mean Duration of Anemia in Days (±SE) (Balb/c mice, 6.11 Gy TBI; EC-18 500 mg/kg, n=19): 14.0 ± 0.8^e (7-20) Days | Mean Duration of Neutropenia in Days (±SE) (Balb/c mice, 6.11 Gy TBI; EC-18 500 mg/kg, n=19): 21.9 ± 0.6^e (17-27) Days | Mean Duration of SN in Days (±SE) (Balb/c mice, 6.11 Gy TBI; EC-18 500 mg/kg, n=19): 9.6 ± 0.6^e (2-14) Days | Mean Duration of Thrombocytopenia in Days (±SE) (Balb/c mice, 6.11 Gy TBI; EC-18 500 mg/kg, n=19): 12.3 ± 0.7^e (7-20) Days | severity of the nadir (Balb/c mice, 6.11 Gy TBI; mouse, in vivo): diminished | timing of nadirs for neutrophils, PLTs, red blood cells, hemoglobin (Balb/c mice, 6.11 Gy TBI; mouse, in vivo): unchanged | mortality (Beagle dog; 2 weeks, 0, 500, 1000, 2000 mg/kg): No dead animals | findings (Beagle dog; 2 weeks, males and females in 1000 and 2000 mg/kg dose groups): Grayish stool observed | mortality (Beagle dog; 4 weeks (2-week recovery)): No dead animals | findings (Beagle dog; 4 weeks (2-week recovery), drug administration groups): Grayish stool observed | findings (soft stool and grayish stool; early diarrhea; no toxicological significance) (Beagle dog; 9 months (4-week recovery)): Dose-dependent soft | mortality (Beagle dog; 9 months (4-week recovery)): No dead animals | findings (grayish stool observed) (Beagle dog; 13 weeks (4-week recovery)): Dose-dependent grayish | mortality (Beagle dog; 13 weeks (4-week recovery)): No dead animals | NOAEL at 2 weeks ([1]; 2 weeks): > 2000 mg/kg/day | NOAEL at 4 weeks ([1]; 4 weeks (2-week recovery)): > 2000 mg/kg/day | NOAEL at 9 months ([1]; 9 months (4-week recovery)): 2000 mg/kg/day | NOAEL at 13 weeks ([1]; 13 weeks (4-week recovery)): > 2000 mg/kg/day | T and B lymphocyte proliferation (SD rat [2]): No changes in T and B | immunotoxicity (SD rat [3]): No immunotoxicity
